One data set concerns the target T1, FGFR3 (Homo sapiens, UniProt P22607).
T1 construct: purchased DiscoveRx Corporation
Nature of the data set: Enzyme binding assay (KINOMEscan) FGFR3. The following applies: pKd = -log Kd (M), read-out: FGFR3_pKd (converted). The protocol: (§1) Enzyme Binding Assays (KINOMEscan®)
(§2) Kinase enzyme binding affinities of compounds disclosed herein were determined using the KINOMEscan® technology performed by DiscoveRx Corporation, San Diego, Calif., USA (www.kinomescan.com).

In a further data set the target is T2, FGFR4 (Homo sapiens, UniProt P22455).
T2 construct: purchased DiscoveRx Corporation
T2 sequence (P22455 22-802): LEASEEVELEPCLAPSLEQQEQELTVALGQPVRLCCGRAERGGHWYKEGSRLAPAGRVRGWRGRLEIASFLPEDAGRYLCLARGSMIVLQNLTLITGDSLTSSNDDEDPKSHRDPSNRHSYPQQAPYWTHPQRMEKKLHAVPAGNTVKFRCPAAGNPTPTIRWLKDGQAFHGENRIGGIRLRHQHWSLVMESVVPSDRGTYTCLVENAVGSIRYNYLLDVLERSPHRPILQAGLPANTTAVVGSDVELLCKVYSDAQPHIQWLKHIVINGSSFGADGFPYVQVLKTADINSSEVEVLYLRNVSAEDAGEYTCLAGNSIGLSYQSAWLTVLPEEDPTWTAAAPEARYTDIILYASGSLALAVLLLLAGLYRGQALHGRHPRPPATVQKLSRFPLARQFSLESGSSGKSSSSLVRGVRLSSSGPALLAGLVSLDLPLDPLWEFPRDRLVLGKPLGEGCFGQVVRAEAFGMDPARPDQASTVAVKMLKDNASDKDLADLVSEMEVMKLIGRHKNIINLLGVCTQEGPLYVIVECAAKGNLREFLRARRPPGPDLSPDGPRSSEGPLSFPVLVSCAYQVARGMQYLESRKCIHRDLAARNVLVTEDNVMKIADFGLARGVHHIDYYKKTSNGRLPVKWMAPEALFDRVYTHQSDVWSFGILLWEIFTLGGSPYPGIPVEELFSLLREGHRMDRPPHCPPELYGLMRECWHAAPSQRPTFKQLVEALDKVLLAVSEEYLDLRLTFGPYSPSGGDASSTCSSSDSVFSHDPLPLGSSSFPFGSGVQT
Briefly: Enzyme binding assay (KINOMEscan) FGFR4. The following applies: pKd = -log Kd (M); for Kd: read-out: FGFR4_pKd (converted). Here is the method:
as §1, §2

The next data set deals with T3, FGFR1 (Homo sapiens, UniProt P11362).
T3 construct: purchased DiscoveRx Corporation
T3 sequence (P11362 22-822): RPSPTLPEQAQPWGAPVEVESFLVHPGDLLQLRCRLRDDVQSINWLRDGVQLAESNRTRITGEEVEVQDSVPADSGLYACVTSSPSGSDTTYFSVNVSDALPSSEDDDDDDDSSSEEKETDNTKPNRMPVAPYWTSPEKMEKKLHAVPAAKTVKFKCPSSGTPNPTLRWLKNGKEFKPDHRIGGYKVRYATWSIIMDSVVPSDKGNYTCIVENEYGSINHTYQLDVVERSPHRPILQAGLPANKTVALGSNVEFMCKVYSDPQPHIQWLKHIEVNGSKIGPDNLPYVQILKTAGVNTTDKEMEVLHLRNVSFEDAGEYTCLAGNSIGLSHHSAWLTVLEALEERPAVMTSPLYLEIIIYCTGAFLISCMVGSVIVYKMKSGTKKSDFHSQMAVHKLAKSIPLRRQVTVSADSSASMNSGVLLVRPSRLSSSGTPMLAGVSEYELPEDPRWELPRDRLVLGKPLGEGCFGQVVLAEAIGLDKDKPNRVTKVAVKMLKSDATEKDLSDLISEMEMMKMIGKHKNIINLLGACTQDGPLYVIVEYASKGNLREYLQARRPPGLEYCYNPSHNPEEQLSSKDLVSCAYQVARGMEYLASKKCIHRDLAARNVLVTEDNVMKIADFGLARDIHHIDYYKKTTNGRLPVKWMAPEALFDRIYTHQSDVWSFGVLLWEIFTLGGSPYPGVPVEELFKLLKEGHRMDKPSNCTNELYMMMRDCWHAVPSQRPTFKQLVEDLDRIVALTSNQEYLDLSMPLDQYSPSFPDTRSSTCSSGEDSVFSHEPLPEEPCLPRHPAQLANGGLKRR
Nature of the data set: Enzyme binding assay (KINOMEscan) FGFR1. The following applies: FGFR1_pKd, pKd = -log Kd (M). The protocol:
as §1, §2

The next data set has as its target T4, FGFR2 (Homo sapiens, UniProt P21802).
T4 construct: purchased DiscoveRx Corporation
Nature of the data set: Enzyme binding assay (KINOMEscan) FGFR2. The following applies: pKd = -log Kd (M), read-out: FGFR2_pKd (converted). The protocol: as §1, §2

In a further data set the target is T5, VEGFR2 (Homo sapiens, UniProt P35968).
T5 construct: purchased DiscoveRx Corporation
T5 sequence (P35968 20-1356): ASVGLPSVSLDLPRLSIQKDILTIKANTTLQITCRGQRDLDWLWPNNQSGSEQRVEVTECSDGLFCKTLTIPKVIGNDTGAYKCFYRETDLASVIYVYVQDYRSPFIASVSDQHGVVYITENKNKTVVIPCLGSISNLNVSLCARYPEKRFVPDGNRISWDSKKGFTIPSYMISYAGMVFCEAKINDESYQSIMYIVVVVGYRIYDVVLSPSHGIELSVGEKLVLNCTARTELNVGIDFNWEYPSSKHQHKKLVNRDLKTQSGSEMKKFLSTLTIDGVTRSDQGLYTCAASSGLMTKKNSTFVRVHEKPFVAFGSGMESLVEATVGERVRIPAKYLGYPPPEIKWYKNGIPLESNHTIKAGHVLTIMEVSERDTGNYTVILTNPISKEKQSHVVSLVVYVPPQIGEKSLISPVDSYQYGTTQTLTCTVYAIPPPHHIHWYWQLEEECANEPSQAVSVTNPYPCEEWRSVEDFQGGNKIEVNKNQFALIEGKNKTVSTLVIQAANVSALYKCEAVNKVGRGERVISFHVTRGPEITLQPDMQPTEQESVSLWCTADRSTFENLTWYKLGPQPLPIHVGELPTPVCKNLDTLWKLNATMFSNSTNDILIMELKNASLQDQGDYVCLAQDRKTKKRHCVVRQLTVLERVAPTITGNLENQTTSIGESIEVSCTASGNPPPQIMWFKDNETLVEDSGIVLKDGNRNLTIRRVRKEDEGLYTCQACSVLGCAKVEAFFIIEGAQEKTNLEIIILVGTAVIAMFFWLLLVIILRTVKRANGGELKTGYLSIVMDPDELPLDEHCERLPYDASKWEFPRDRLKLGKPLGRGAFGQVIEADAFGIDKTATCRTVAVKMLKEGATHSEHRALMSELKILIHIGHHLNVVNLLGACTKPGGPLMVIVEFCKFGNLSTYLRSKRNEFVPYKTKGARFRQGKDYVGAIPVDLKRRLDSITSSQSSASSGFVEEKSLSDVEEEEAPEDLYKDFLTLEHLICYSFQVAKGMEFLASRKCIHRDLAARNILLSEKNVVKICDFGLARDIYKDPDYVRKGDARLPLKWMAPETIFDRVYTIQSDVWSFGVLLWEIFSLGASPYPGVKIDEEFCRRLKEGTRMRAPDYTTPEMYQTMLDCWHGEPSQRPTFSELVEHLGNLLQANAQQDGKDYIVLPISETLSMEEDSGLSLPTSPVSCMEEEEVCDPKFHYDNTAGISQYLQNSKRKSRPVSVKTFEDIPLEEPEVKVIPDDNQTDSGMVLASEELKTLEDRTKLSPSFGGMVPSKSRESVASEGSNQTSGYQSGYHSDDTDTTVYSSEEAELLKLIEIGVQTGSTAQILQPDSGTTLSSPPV
Briefly: Enzyme binding assay (KINOMEscan) VEGFR2. The following applies: pKd = -log Kd (M), read-out: VEGFR2_pKd (converted). The protocol: as §1, §2

T4 sequence (P21802 22-821): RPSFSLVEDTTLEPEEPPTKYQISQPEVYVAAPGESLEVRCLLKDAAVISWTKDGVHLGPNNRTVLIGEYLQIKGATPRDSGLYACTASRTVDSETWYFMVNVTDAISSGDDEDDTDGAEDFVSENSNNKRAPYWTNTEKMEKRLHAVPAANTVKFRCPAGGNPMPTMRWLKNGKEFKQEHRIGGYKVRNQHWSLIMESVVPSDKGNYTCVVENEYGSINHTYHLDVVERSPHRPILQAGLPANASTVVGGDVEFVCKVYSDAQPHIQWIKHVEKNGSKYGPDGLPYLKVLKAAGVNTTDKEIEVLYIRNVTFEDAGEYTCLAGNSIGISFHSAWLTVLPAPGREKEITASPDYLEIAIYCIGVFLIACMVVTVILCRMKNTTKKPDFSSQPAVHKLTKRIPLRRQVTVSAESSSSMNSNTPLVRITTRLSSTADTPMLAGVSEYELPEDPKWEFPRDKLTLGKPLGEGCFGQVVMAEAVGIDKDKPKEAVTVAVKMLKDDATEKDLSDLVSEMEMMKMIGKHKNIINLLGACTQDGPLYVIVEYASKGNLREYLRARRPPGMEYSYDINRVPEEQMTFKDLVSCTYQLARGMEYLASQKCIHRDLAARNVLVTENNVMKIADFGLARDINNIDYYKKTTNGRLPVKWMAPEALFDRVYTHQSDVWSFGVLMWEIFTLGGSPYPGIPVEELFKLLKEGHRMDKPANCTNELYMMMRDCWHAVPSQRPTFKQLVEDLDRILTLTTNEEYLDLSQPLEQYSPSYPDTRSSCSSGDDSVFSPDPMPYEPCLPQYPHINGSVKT
T1 sequence (P22607 23-806): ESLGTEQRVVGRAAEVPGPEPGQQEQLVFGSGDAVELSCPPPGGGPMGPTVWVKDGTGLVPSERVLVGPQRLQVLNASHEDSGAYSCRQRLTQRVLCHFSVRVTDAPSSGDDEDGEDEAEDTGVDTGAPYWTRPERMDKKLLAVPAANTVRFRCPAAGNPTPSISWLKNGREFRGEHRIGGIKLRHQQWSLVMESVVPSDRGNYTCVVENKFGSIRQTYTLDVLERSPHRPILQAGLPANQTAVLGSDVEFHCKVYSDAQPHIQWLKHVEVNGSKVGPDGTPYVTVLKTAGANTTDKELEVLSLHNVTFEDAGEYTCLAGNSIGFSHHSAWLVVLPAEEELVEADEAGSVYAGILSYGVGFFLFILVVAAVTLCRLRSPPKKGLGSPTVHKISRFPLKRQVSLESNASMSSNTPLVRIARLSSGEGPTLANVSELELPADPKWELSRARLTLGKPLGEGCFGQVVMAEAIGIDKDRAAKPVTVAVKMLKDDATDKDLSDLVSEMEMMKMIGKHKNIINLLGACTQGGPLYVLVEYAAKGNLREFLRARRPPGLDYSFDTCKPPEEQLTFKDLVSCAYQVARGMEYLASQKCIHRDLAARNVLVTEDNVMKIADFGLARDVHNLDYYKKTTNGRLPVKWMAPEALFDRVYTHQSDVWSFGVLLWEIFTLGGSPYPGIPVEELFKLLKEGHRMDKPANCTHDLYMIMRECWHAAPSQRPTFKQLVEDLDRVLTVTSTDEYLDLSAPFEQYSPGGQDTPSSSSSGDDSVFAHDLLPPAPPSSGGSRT

The compound `COc1cc(OC)cc(/C(=C\C#N)c2ccc3ncn(-c4cnn(C)c4)c(=O)c3c2)c1` [Compound 49] yielded a melting point of 217 °C. Further, the Kd on FGFR3 was 7.94e-07 M. In addition, the Kd at FGFR4 was above 3.16e-06 M. Besides, the Kd on FGFR1 was 2e-06 M. The Kd at FGFR2 was 3.98e-07 M. The Kd at VEGFR2 is above 3.16e-06 M.
Turning to `COc1cc(OC)c(F)c(N(CCCO)c2ccc3ncn(C4CCNCC4)c(=O)c3c2)c1F` [Compound 53], the melting point amounted to 184 °C. At FGFR3, the Kd was 6.31e-08 M. The Kd at FGFR4 was 2e-07 M. Also, the Kd at FGFR1 is 5.01e-08 M. The Kd on FGFR2 was 3.16e-08 M. For the same compound, on VEGFR2, the Kd is above 3.16e-06 M.
Turning to `COc1cc(OC)c(F)c(N(CCCO)c2ccc3ncn(C4CCNCC4)c(=O)c3c2)c1` [Compound 54], the melting point turned out to be 167 °C. At FGFR3, the Kd was 6.31e-07 M. The Kd at FGFR4 was above 3.16e-06 M. This compound also had a Kd on FGFR1 of 7.94e-07 M. Also, the Kd at FGFR2 is 3.16e-07 M. Moreover, the Kd on VEGFR2 was above 3.16e-06 M.
On to `COc1cc(OC)cc(N(CCCO)c2ccc3ncn(C4CCNCC4)c(=O)c3c2)c1` [Compound 55], for which the melting point was determined as 167 °C. The Kd on FGFR3 is 2.51e-06 M. The Kd on FGFR4 was above 3.16e-06 M. At FGFR1, this compound gave a Kd above 3.16e-06 M. For the same compound, the Kd on FGFR2 is 2.51e-06 M. The Kd on VEGFR2 is above 3.16e-06 M.
Take `CNCCN(c1ccc2ncn(C3CCNCC3)c(=O)c2c1)c1cc(OC)cc(OC)c1F` [Compound 58]: the melting point came to 176 °C. Besides, the Kd on FGFR3 was 6.31e-07 M. Also, at FGFR4, the Kd was 2e-06 M. Besides, the Kd at FGFR1 is 3.16e-07 M. Besides, at FGFR2, the Kd is 3.98e-07 M. Moreover, the Kd on VEGFR2 was above 3.16e-06 M.
For the compound `COc1cc(OC)c(F)c(N(CCO)c2ccc3ncn(C4CCOCC4)c(=O)c3c2)c1` [Compound 63], the melting point is 191 °C. At FGFR3, the Kd was 1.26e-07 M. The Kd at FGFR4 was 1.58e-06 M. For the same compound, the Kd at FGFR1 was 3.98e-07 M. In addition, on FGFR2, the Kd was 6.31e-08 M. Moreover, the Kd on VEGFR2 was above 3.16e-06 M.
In turn, `COc1cc(OC)c(F)c(N(Cc2nccn2S(=O)(=O)N(C)C)c2ccc3ncn(C4CCOCC4)c(=O)c3c2)c1` [Compound 67] came in with a melting point of 189 °C. Besides, on FGFR3, the Kd is 7.94e-07 M. Moreover, the Kd on FGFR4 was above 3.16e-06 M. The compound further had a Kd at FGFR1 of 3.16e-07 M. For the same compound, the Kd at FGFR2 was 2.51e-07 M. Besides, the Kd on VEGFR2 is above 3.16e-06 M.
For `CNCCN(c1ccc2ncn(C3CCOCC3)c(=O)c2c1)c1cc(OC)cc(OC)c1F` [Compound 70], the melting point was determined as 178 °C. The Kd at FGFR3 was 7.94e-08 M. The Kd on FGFR4 was 1e-07 M. Moreover, the Kd on FGFR1 was 3.16e-08 M. At FGFR2, the Kd is 3.98e-08 M. At VEGFR2, the Kd is above 3.16e-06 M.
In turn, `CNCCN(c1cc(OC)cc(OC)c1)c1ccc2ncn(C3CCOCC3)c(=O)c2c1` [Compound 71] had a melting point of 135 °C. Moreover, the Kd at FGFR3 is 1.26e-06 M. Also, at FGFR4, the Kd is above 3.16e-06 M. This compound also gave a Kd on FGFR1 of 6.31e-07 M. Also, the Kd on FGFR2 was 3.98e-07 M. Besides, on VEGFR2, the Kd was above 3.16e-06 M.
In the case of `COc1cc(OC)cc(N(CCCNC(C)C)c2ccc3ncn(C4CCOCC4)c(=O)c3c2)c1` [Compound 73], the melting point was 240 °C. Moreover, the Kd on FGFR3 is 1.58e-07 M. Also, at FGFR4, the FGFR4_pKd worked out at 5.9. This compound gave a Kd on FGFR1 of 6.31e-08 M. Further, the Kd on FGFR2 is 5.01e-08 M. Also, on VEGFR2, the Kd was above 3.16e-06 M.
The compound `COc1cc(OC)c(F)c(N(CCO)c2ccc3ncn(-c4cncnc4)c(=O)c3c2)c1` [Compound 74] returned a melting point of 200 °C. The Kd at FGFR3 was 3.98e-07 M. For the same compound, the Kd on FGFR4 was 2e-06 M. The compound also showed a Kd on FGFR1 of 7.94e-07 M. Further, the Kd at FGFR2 is 1.26e-07 M. Besides, the Kd at VEGFR2 was above 3.16e-06 M.
Take `COc1cc(OC)c(F)c(N(Cc2ncc[nH]2)c2ccc3ncn(C4CCOCC4)c(=O)c3c2)c1` [Compound 75]: the melting point is above 260 °C. For the same compound, the Kd on FGFR3 is 1.58e-08 M. In addition, the Kd on FGFR4 is 2e-07 M. This compound had a Kd at FGFR1 of 3.98e-08 M. The Kd on FGFR2 is 1e-08 M. Moreover, at VEGFR2, the Kd was above 3.16e-06 M.
`COc1cc(OC)c(F)c(N(CCO)c2ccc3ncn(-c4cncnc4)c(=O)c3c2)c1F` [Compound 76] registered a melting point of 178 °C. Besides, the Kd on FGFR3 is 3.16e-08 M. The Kd on FGFR4 was 2e-07 M. Moreover, the Kd at FGFR1 was 6.31e-08 M. Moreover, the Kd at FGFR2 is 1.58e-08 M. Also, the Kd at VEGFR2 is above 3.16e-06 M.

The term melting point denotes the temperature of the solid-liquid transition.

The record behind these values is patent US9493426B2, “Quinazolinone derivatives useful as FGFR kinase modulators” (priority 2013, dated 2016).
